Measured values from patent US20070231320A1, “Eggs having increased antibody titer and methods for making same” (priority 2006, published 2007).

Legend:
Type in all cases: in vivo, Hyline-98 leghorn hens
[1] = tested on: anti-PLA2 antibody titer in egg yolk; assay: Egg yolk anti-PLA2 antibody titer by ELISA, third trial: indomethacin or aspirin in feed from day 14 after antigen; conditions: FIG. 3, inhibitor in feed from day 14 after PLA2 injection; for presence of anti-PLA2 antibodies in eggs: 21 days after exposure
Method: (§1) Eggs were cracked and the yolks and albumin were separated. The antibodies were extracted by a 1:10 dilution of yolk in acidified PBS (pH 5.0) for twelve hours. Antibody titer was assayed by enzyme-linked immunosorbent assay (ELISA) at twenty-eight, thirty-five and forty-two days after exposure to the antigen. Optical density was measured at 450 nm using an HRP enzyme reaction to detect antibody. A standard on each plate was defined as a “positive reaction,” which is defined as twice the optical density of an egg yolk diluted 1:2000 from a hen not immunized against the antigen.
In a third set of experiments, the hens were divided at 245 days of age into three treatment groups. On day one, the three groups were injected at the four sites with 1 ml total of 3 mg PLA2/ml of CFA and PBS in a 50/50 mixture. A control group (n=8) was fed standard breeder's mash for the entire trial. Starting on day fourteen after exposure to the antigen, a first test group (n=8) was fed standard breeder's mash supplemented with 50 mg of indomethacin/kg diet and a second test group (n=8) was fed standard breeder's mash supplemented with 1 g aspirin/kg diet.
Antibody titer was determined as in the first two trials at twenty-one, twenty-eight and sixty-three days after the injection of PLA2.

[2] = tested on: anti-PLA2 antibody titer in egg yolk; assay: Egg yolk anti-PLA2 antibody titer by ELISA, second trial: indomethacin or aspirin in feed for 24 h before antigen; conditions: for anti-PLA2 antibody titer in eggs vs control hens / presence of anti-PLA2 antibodies in eggs: FIG. 2, 50 mg indomethacin/kg diet or 1 g aspirin/kg diet for 24 h before PLA2 injection; for anti-PLA2 antibody titer in eggs vs control hens: 35 and 42 days after exposure; for presence of anti-PLA2 antibodies in eggs: 21 days after exposure
Method: as §1
In a second set of trials, the hens were divided at 300 days of age into three treatment groups. For twenty-four hours after the groups were established, a control group (n=6) was fed standard breeder's mash, a first test group (n=6) was fed standard breeder's mash supplemented with 50 mg of indomethacin/kg diet, and a second test group (n=6) was fed standard breeder's mash supplemented with 1 g aspirin/kg diet. After twenty-four hours, the three groups were injected at the four sites with 1 ml total of 3 mg PLA2/ml of CFA and PBS in a 50/50 mixture. Booster injections were given as described above.
Antibody titer was determined as in the first trial at twenty-one, twenty-eight, thirty-five and forty-two days after exposure to the antigen.

[3] = tested on: anti-PLA2 antibody titer in egg yolk; assay: Egg yolk anti-PLA2 antibody titer by ELISA, first trial: COX inhibitor in feed for 24 h before antigen; conditions: 50 mg indomethacin/kg diet for 24 h before PLA2 injection
Method: Hyline-98 leghorn hens were randomly assigned to treatment groups and given free access to standard breeder's mash and water. In a first set of trials, the hens were divided at 245 days of age into two treatment groups. For twenty four hours after the groups were established, a control group (n=6) was fed standard breeder's mash and a test group (n=6) was fed standard breeder's mash supplemented with 50 mg of indomethacin/ kg diet. After twenty four hours, both groups were injected intramuscularly (i.m.) at four sites (each breast muscle and each leg muscle) with 1 ml total of 3 mg PLA2/ml of complete Freund's adjuvant (CFA; Sigma, St. Louis, Mo.) and phosphate buffered saline (PBS) in a 50/50 mixture. Hens were given an i.m. booster injection over the four sites seven days after initial injection with 1 ml total of a 3 mg PLA2/ml of incomplete Freund's adjuvant (IFA; Sigma) and PBS in a 50/50 mixture.
as §1

Compound | anti-PLA2 antibody titer in eggs compared to control ([1]; 21 and 28 days after exposure) | presence of anti-PLA2 antibodies in eggs [1] | anti-PLA2 antibody titer in eggs compared to control ([1]; 63 days after exposure) | anti-PLA2 antibody titer of eggs relative to eggs from control hens ([2]; 1 g aspirin/kg diet for 24 h before PLA2 injection, 42 days after exposure) | effectiveness at increasing antibody titer, aspirin compared with indomethacin ([2]; 1 g aspirin/kg diet vs 50 mg indomethacin/kg diet for 24 h before PLA2 injection) | anti-PLA2 antibody titer in eggs vs control hens [2] | presence of anti-PLA2 antibodies in eggs [2] | anti-PLA2 antibody titer of eggs relative to eggs from control hens ([3]; 42 days after exposure) | anti-PLA2 antibody titer in eggs vs control hens ([3]; FIG. 1, 28, 35 and 42 days after exposure) | presence of antigen-specific anti-PLA2 antibodies in eggs ([3]; FIG. 1, by 28 days after exposure)
CC(=O)Oc1ccccc1C(=O)O [aspirin] | not significantly different | contained anti-PLA2 antibodies | control group had a higher antibody titer | nearly three times | more effective | significantly increased | had anti-PLA2 antibodies |  |  | 
COc1ccc2c(c1)c(CC(=O)O)c(C)n2C(=O)c1ccc(Cl)cc1 [indomethacin] | not significantly different | contained anti-PLA2 antibodies | control group had a higher antibody titer |  |  | significantly increased | had anti-PLA2 antibodies | nearly triple | significantly increased | contained antigen-specific anti-PLA2 antibodies
